From ChEMBL document CHEMBL1201862, “PubChem BioAssay data set” (2004)
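Values below derive from 48-hour exposures of cells grown in 96-well plates, with endpoints linearly interpolated between the two concentrations bracketing the appropriate inhibition level. The concentration for 50% growth inhibition is given as GI50.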 Activity calls are given as the source filed them. Rule as the data show it: active = GI50 up to about 1.1 µM and inactive = higher.

Columns and labels:
Assay in all cases: NCI anticancer screen, dose series, 48 h
[1] = system: A498
[2] = system: MCF7
[3] = system: SF-295
[4] = system: NCI/ADR-RES
[5] = system: BT-549
[6] = system: HL-60
[7] = system: RPMI-8226
[8] = system: Hs-578T
[9] = system: DU-145
[10] = system: SK-OV-3
[11] = system: Malme-3M
[12] = system: MOLT-4
[13] = system: OVCAR-4
[14] = system: SNB-19
[15] = system: NCI-H522
[16] = system: SNB-75
[17] = system: HOP-92
[18] = system: UO-31
[19] = system: HOP-62
[20] = system: SR

SMILES | GI50 [1] | GI50 [2] | GI50 [3] | GI50 [4] | GI50 [5] | GI50 [6] | GI50 [7] | GI50 [8] | GI50 [9] | GI50 [10] | GI50 [11] | GI50 [12] | GI50 [13] | GI50 [14] | GI50 [15] | GI50 [16] | GI50 [17] | GI50 [18] | GI50 [19] | GI50 [20]
CCc1nc(N)nc(N)c1-c1ccc2c(c1)nnn2CCc1ccccc1 | 24.1 µM (inactive) | 21.1 µM (inactive) | 8.3 µM (inactive) | 13.7 µM (inactive) | 22.9 µM (inactive) | 3.02 µM (inactive) | 13.6 µM (inactive) | 30.7 µM (inactive) | 23.9 µM (inactive) | 45.4 µM (inactive) | 19.5 µM (inactive) | 8.91 µM (inactive) | 20.8 µM (inactive) | 23.9 µM (inactive) | 5.98 µM (inactive) | 15.8 µM (inactive) | 38.4 µM (inactive) | 16.3 µM (inactive) | 22.2 µM (inactive) | 5.18 µM (inactive)
COc1cccc(-c2c(-c3ccccc3)[nH]c(C)c2C(=O)ONC(=O)c2ccccc2)c1 | 15 µM (inactive) | 8.85 µM (inactive) | 2.55 µM (inactive) | 8.93 µM (inactive) | 5.41 µM (inactive) | 1.93 µM (inactive) | 6.28 µM (inactive) | 4.95 µM (inactive) | 2.59 µM (inactive) | 14.2 µM (inactive) | 13.4 µM (inactive) | 4.24 µM (inactive) | 5.05 µM (inactive) | 7.89 µM (inactive) | 3.78 µM (inactive) | 5.86 µM (inactive) | 1.83 µM (inactive) | 0.128 µM (active) | 2.72 µM (inactive) | 2.07 µM (inactive)
CC(C)=CCCC(C)CCOS(=O)C(F)(F)F (stereo not given) | 20.8 µM (inactive) | 34.7 µM (inactive) | 25.1 µM (inactive) | 4.16 µM (inactive) | 5.24 µM (inactive) | 2.88 µM (inactive) | 29.4 µM (inactive) | 1.16 µM (inactive) | 35.3 µM (inactive) | 22.1 µM (inactive) | 3.15 µM (inactive) | 2.58 µM (inactive) | 6.59 µM (inactive) | 22.1 µM (inactive) | 1.71 µM (inactive) | 20.5 µM (inactive) | 18.7 µM (inactive) | 13.1 µM (inactive) | 70.1 µM (inactive) | 1.92 µM (inactive)
Cc1ccc(S(=O)(=O)CC2(Br)CCc3ccccc3C2=O)cc1 (stereo not given) | 25.8 µM (inactive) | 24.5 µM (inactive) | 77.8 µM (inactive) | 48.9 µM (inactive) | 18.3 µM (inactive) | 17.3 µM (inactive) | 38.1 µM (inactive) | 32.6 µM (inactive) | 74.8 µM (inactive) | 39.7 µM (inactive) | 33.5 µM (inactive) | 2.86 µM (inactive) | 27.7 µM (inactive) | 41.9 µM (inactive) | 15.6 µM (inactive) | 29.9 µM (inactive) | 34.4 µM (inactive) | 14.8 µM (inactive) | 39.4 µM (inactive) | 1.38 µM (inactive)
Nc1cc(C2CCCc3c2[nH]c2ccccc32)ccc1O (stereo not given) | > 100 µM (inactive) | 24.8 µM (inactive) | 14.4 µM (inactive) | 22 µM (inactive) | 35.2 µM (inactive) | 14.2 µM (inactive) | 0.271 µM (active) | 69.8 µM (inactive) | 26 µM (inactive) | > 100 µM (inactive) | 33 µM (inactive) | 4.79 µM (inactive) | 16.9 µM (inactive) | > 100 µM (inactive) | 20.1 µM (inactive) | 52 µM (inactive) | 56.8 µM (inactive) | 10.5 µM (inactive) | 74.6 µM (inactive) | 4.48 µM (inactive)
CC[C@@]1(OC(=O)CCC(=O)O)C(=O)OCc2c1cc1n(c2=O)Cc2cc3ccccc3nc2-1 | 0.216 µM (active) | 0.0287 µM (active) | 0.0251 µM (active) | 0.0383 µM (active) | 0.484 µM (active) | 0.0313 µM (active) | 0.193 µM (active) | 14.6 µM (inactive) | 0.0271 µM (active) | 0.23 µM (active) | 0.467 µM (active) | < 0.01 µM (active) | 1.46 µM (inactive) | 0.0519 µM (active) | 0.103 µM (active) | 0.104 µM (active) | 1.29 µM (inactive) | 0.0583 µM (active) | 0.0139 µM (active) | < 0.01 µM (active)
